# Legend:
# HEK293T cells [1] = assay: Quantitative total proteomics; type: cell-based, human; conditions: 15 μM, 24 h vs DMSO
# Method: (§1) For total proteomics and Ub remnant profiling (diGly proteomics), HEK293T cells were treated with 15 μM BI8626 (in DMSO) or an equivalent volume of DMSO for 24 h, washed with ice-cold 1 x DPBS, and lysed in 9 M urea, 50 mM Tris (pH 8.0) and 150 mM NaCl, supplemented with protease inhibitor (Roche) and 50 µM PR-619, and processed essentially as described. Briefly, the cells were lysed by sonication, non-solubilized material removed by centrifugation, and the protein concentration was determined with a Pierce BCA Protein Assay Kit. 5 mg was used for further MS processing and four biological replicates per condition.
# (§2) After reduction with 5 mM DTT and alkylation with 10 mM chloroacetamide, followed by quenching with 5 mM DTT, lysates were digested with 5 ng/μl LysC protease (Wako) at RT for 1 h. Subsequent digestion of peptides with trypsin (Promega) at a 1: 200 enzyme: peptide ratio was performed. Desalted and lyophilized peptides were resuspended in 1.5 ml IAP buffer (50 mM MOPS (pH 7.2), 10 mM Na2HPO4, 50 mM NaCl) and centrifuged to remove insoluble material. […]
# (§3) Data collection was controlled by Tune v.4.0.4084.22 (Thermo Scientific) and Xcalibur v.2.4 (Thermo Fisher Scientific). Raw data files from quadruplicate samples were analyzed using MaxQuant v.1.6.0.1 (Max Planck Institute of Biochemistry)[56],[57]. […]
# HEK293T cells [2] = assay: Ub remnant profiling (diGly proteomics); type: cell-based, human; conditions: 15 μM, 24 h vs DMSO
# Method: as §1, §2, §3
smiles,measurement,setting,value
NCc1cccc(CNc2ncnc3c(N4CCN(Cc5ccccc5)CC4)ncnc23)c1 [BI8626],Total proteome changes,HEK293T cells [1],widespread compound-induced changes
same,Protein ubiquitination changes (diGly proteomics),HEK293T cells [2],predominantly reductions in protein ubiquitination

# — article PMC12405493, “Selective ubiquitination of drug-like small molecules by the ubiquitin ligase HUWE1” (Nature Communications, 2025)
